Patent US20260317324A1, “BIFUNCTIONAL COMPOUNDS FOR DEGRADING BRAF VIA UBIQUITIN PROTEOSOME PATHWAY” (Nurix Therapeutics, Inc., priority 2023, published 2026)

What was measured:
Assay type in all cases: cell-based
BRAF V600E = molecular target: T1, BRAF V600E (Homo sapiens, UniProt P15056, V600E); test: BRAF HiBiT degradation assay, C-terminal HiBiT-tagged BRAF V600E A375 cells (clone 1F10), Nano-Glo HiBiT Lytic assay; settings: A375 (BRAF V600E, Class 1); for DC50: DC50 at 50% degradation; for Dmax: A-375, observed Dmax, % protein degraded relative to DMSO control
T1 construct: endogenous C-terminal HiBiT fusion tag on BRAF V600E allele; endogenous in cells; host or cells: A375 clone 1F10 (CRISPR-Cas9 knock-in of the HiBiT tag; parental A375 from ATCC)
T1 sequence (P15056 whole entry V600E, the tested form may be a part): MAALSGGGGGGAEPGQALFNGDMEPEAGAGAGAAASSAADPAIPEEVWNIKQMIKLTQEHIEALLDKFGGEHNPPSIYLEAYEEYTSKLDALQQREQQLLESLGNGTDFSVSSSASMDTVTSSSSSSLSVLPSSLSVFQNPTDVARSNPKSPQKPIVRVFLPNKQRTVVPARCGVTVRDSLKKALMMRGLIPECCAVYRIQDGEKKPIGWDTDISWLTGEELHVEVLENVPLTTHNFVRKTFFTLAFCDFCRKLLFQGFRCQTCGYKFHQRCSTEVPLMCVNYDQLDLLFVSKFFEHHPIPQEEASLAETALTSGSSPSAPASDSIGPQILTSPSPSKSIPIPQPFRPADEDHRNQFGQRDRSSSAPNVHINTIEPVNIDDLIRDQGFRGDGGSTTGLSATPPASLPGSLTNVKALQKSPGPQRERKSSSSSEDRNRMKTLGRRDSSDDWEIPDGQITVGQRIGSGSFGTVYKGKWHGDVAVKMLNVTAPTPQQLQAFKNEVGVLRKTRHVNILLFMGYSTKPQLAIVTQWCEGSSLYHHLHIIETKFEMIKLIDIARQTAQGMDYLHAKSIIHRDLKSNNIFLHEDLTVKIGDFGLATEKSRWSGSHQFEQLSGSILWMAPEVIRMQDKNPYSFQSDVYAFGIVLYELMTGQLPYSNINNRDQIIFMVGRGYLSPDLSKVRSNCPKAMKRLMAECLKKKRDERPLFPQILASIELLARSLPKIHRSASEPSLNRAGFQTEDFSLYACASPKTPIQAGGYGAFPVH
Method in brief: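 Using CRISPR-engineered A375 cells that carry a C-terminal HiBiT tag on endogenous BRAF V600E, remaining protein was quantified by lytic luminescence relative to DMSO-treated cells, with wildtype A375 as the background control. DC50 denotes the concentration giving 50% degradation.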

BRAF D594G = molecular target: T2, BRAF D594G (Homo sapiens, UniProt P15056, D594G); test: BRAF HiBiT degradation assay, C-terminal HiBiT-tagged BRAF D594G overexpressed in HCT-116 BRAF−/− cells (clone 63), Nano-Glo HiBiT Lytic assay; settings: BRAF D594G (Class 3), HCT-116 BRAF−/− cells; for DC50: DC50 at 50% degradation; for Dmax: observed Dmax relative to DMSO control
T2 construct: Horizon Discovery (HCT-116 BRAF−/− cells); host or cells: HCT-116 BRAF−/− cells, clone 63, lentiviral transduction
T2 sequence (P15056 whole entry D594G): as the sequence (P15056 whole entry V600E, the tested form may be a part) above, with D594G, E600V counted along it
Method in brief: (§1)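 Degradation assay in HCT-116 BRAF−/− cells carrying lentiviral HiBiT-tagged mutant BRAF. The readout is % protein remaining across 1 μM to 0.01 nM compound, and DC50 marks 50% remaining.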

BRAF G469A = molecular target: T3, BRAF G469A (Homo sapiens, UniProt P15056, G469A); test: BRAF HiBiT degradation assay, C-terminal HiBiT-tagged BRAF G469A overexpressed in HCT-116 BRAF−/− cells (clone 34), Nano-Glo HiBiT Lytic assay; settings: BRAF G469A (Class 2), HCT-116 BRAF−/− cells; for DC50: DC50 at 50% degradation; for Dmax: observed Dmax relative to DMSO control
T3 construct: Horizon Discovery (HCT-116 BRAF−/− cells); host or cells: HCT-116 BRAF−/− cells, clone 34, lentiviral transduction
T3 sequence (P15056 whole entry G469A): as the sequence (P15056 whole entry V600E, the tested form may be a part) above, with G469A, E600V counted along it
Method in brief: as §1

BRAF G466V = molecular target: T4, BRAF G466V (Homo sapiens, UniProt P15056, G466V); test: BRAF HiBiT degradation assay, C-terminal HiBiT-tagged BRAF G466V overexpressed in HCT-116 BRAF−/− cells (clone 8), Nano-Glo HiBiT Lytic assay; settings: BRAF G466V (Class 3), HCT-116 BRAF−/− cells; for DC50: DC50 at 50% degradation; for Dmax: observed Dmax relative to DMSO control
T4 construct: Horizon Discovery (HCT-116 BRAF−/− cells); host or cells: HCT-116 BRAF−/− cells, clone 8, lentiviral transduction
T4 sequence (P15056 whole entry G466V): as the sequence (P15056 whole entry V600E, the tested form may be a part) above, with G466V, E600V counted along it
Method in brief: as §1

SMILES	DC50 (BRAF V600E)	Dmax (BRAF V600E)	DC50 (BRAF D594G)	Dmax (BRAF D594G)	DC50 (BRAF G469A)	Dmax (BRAF G469A)	DC50 (BRAF G466V)	Dmax (BRAF G466V)
O=C1CCN(c2ccc(N3CCC(CN4CCN(c5ccc(-n6cc(-c7cc(Cl)cc(NS(=O)(=O)N8CC[C@@H](F)C8)c7F)c(-c7ccncc7)n6)cc5)CC4)CC3)cc2)C(=O)N1 [Compound 292, (3R)—N-[5-chloro-3-(1-{4-[4-({1-[4-(2,4-dioxo-1,3-diazinan-1-yl)phenyl]piperidin-4-yl}methyl)piperazin-1-yl]phenyl}-3-(pyridin-4-yl)-1H-pyrazol-4-yl)-2-fluorophenyl]-3-fluoropyrrolidine-1-sulfonamide]	< 0.01 µM	> 70%	< 0.01 µM	30 to 70%	0.05 to 0.5 µM	30 to 70%	< 0.01 µM	30 to 70%
O=C1CC[C@H](c2ccc(N3CCC(CN4CCN(c5ccc(-n6cc(-c7cc(Cl)cc(NS(=O)(=O)N8CC[C@@H](F)C8)c7F)c(-c7ccncc7)n6)nc5)CC4)CC3)cc2)C(=O)N1 [Compound 294, (3R)—N-{5-chloro-3-[1-(5-{4-[(1-{4-[(3R)-2,6-dioxopiperidin-3-yl]phenyl}piperidin-4-yl)methyl]piperazin-1-yl}pyridin-2-yl)-3-(pyridin-4-yl)-1H-pyrazol-4-yl]-2-fluorophenyl}-3-fluoropyrrolidine-1-sulfonamide]	< 0.01 µM	> 70%	< 0.01 µM	> 70%	< 0.01 µM	> 70%	< 0.01 µM	> 70%
O=C1CCN(c2ccc(N3CCC(CN4CCN(c5ccc(-n6cc(-c7cc(Cl)cc(NS(=O)(=O)N8CC[C@@H](F)C8)c7F)c(-c7ccncc7)n6)nc5)CC4)CC3)cc2)C(=O)N1 [Compound 295, (3R)—N-[5-chloro-3-(1-{5-[4-({1-[4-(2,4-dioxo-1,3-diazinan-1-yl)phenyl]piperidin-4-yl}methyl)piperazin-1-yl]pyridin-2-yl}-3-(pyridin-4-yl)-1H-pyrazol-4-yl)-2-fluorophenyl]-3-fluoropyrrolidine-1-sulfonamide]	< 0.01 µM	> 70%	< 0.01 µM	30 to 70%	0.05 to 0.5 µM	30 to 70%	< 0.01 µM	30 to 70%
O=C1CC[C@H](c2ccc(N3CCC(CN4CCN(c5ccc(-n6cc(-c7cc(Cl)cc(NS(=O)(=O)N8CC[C@@H](F)C8)c7F)c(-c7ccncc7)n6)nc5)CC4)CC3)nc2)C(=O)N1 [Compound 297, (3R)—N-{5-chloro-3-[1-(5-{4-[(1-{5-[(3R)-2,6-dioxopiperidin-3-yl]pyridin-2-yl}piperidin-4-yl)methyl]piperazin-1-yl}pyridin-2-yl)-3-(pyridin-4-yl)-1H-pyrazol-4-yl]-2-fluorophenyl}-3-fluoropyrrolidine-1-sulfonamide]	< 0.01 µM	> 70%	< 0.01 µM	> 70%	< 0.01 µM	> 70%	< 0.01 µM	> 70%
O=C1CC[C@H](c2ccc(N3CCC(CN4CCN(c5ccc(-n6cc(-c7cc(F)cc(NS(=O)(=O)N8CCCC8)c7F)c(-c7ccncc7)n6)cc5)CC4)CC3)cc2)C(=O)N1 [Compound 299, N-{3-[1-(4-{4-[(1-{4-[(3R)-2,6-dioxopiperidin-3-yl]phenyl}piperidin-4-yl)methyl]piperazin-1-yl}phenyl)-3-(pyridin-4-yl)-1H-pyrazol-4-yl]-2,5-difluorophenyl}pyrrolidine-1-sulfonamide]	< 0.01 µM	> 70%	< 0.01 µM	30 to 70%	0.01 to 0.05 µM	30 to 70%	< 0.01 µM	> 70%
O=C1CCN(c2ccc(N3CCC(CN4CCN(c5ccc(-n6cc(-c7cc(F)cc(NS(=O)(=O)N8CCCC8)c7F)c(-c7ccncc7)n6)cc5)CC4)CC3)cc2)C(=O)N1 [Compound 300, N-[3-(1-{4-[4-({1-[4-(2,4-dioxo-1,3-diazinan-1-yl)phenyl]piperidin-4-yl}methyl)piperazin-1-yl]phenyl}-3-(pyridin-4-yl)-1H-pyrazol-4-yl)-2,5-difluorophenyl]pyrrolidine-1-sulfonamide]	0.01 to 0.05 µM	> 70%	< 0.01 µM	30 to 70%	0.05 to 0.5 µM	30 to 70%	< 0.01 µM	> 70%
O=C1CC[C@H](c2ccc(N3CCC(CN4CCN(c5ccc(-n6cc(-c7cc(F)cc(NS(=O)(=O)N8CCCC8)c7F)c(-c7ccncc7)n6)cc5)CC4)CC3)nc2)C(=O)N1 [Compound 301, N-{3-[1-(4-{4-[(1-{5-[(3R)-2,6-dioxopiperidin-3-yl]pyridin-2-yl}piperidin-4-yl)methyl]piperazin-1-yl}phenyl)-3-(pyridin-4-yl)-1H-pyrazol-4-yl]-2,5-difluorophenyl}pyrrolidine-1-sulfonamide]	< 0.01 µM	> 70%	< 0.01 µM	30 to 70%	0.01 to 0.05 µM	> 70%	< 0.01 µM	> 70%
O=C1CC[C@H](c2ccc(N3CCC(CN4CCN(c5ccc(-n6cc(-c7cc(F)cc(NS(=O)(=O)N8CC[C@@H](F)C8)c7F)c(-c7ccncc7)n6)nc5)CC4)CC3)cc2)C(=O)N1 [Compound 302, (3R)—N-{3-[1-(5-{4-[(1-{4-[(3R)-2,6-dioxopiperidin-3-yl]phenyl}piperidin-4-yl)methyl]piperazin-1-yl}pyridin-2-yl)-3-(pyridin-4-yl)-1H-pyrazol-4-yl]-2,5-difluorophenyl}-3-fluoropyrrolidine-1-sulfonamide]	< 0.01 µM	> 70%	< 0.01 µM	> 70%	0.01 to 0.05 µM	30 to 70%	< 0.01 µM	> 70%
O=C1CCN(c2ccc(N3CCC(CN4CCN(c5ccc(-n6cc(-c7cc(F)cc(NS(=O)(=O)N8CC[C@@H](F)C8)c7F)c(-c7ccncc7)n6)nc5)CC4)CC3)cc2)C(=O)N1 [Compound 303, (3R)—N-[3-(1-{5-[4-({1-[4-(2,4-dioxo-1,3-diazinan-1-yl)phenyl]piperidin-4-yl}methyl)piperazin-1-yl]pyridin-2-yl}-3-(pyridin-4-yl)-1H-pyrazol-4-yl)-2,5-difluorophenyl]-3-fluoropyrrolidine-1-sulfonamide]	< 0.01 µM	> 70%	< 0.01 µM	30 to 70%	0.05 to 0.5 µM	30 to 70%	0.01 to 0.05 µM	30 to 70%
O=C1CC[C@H](c2ccc(N3CCC(CN4CCN(c5ccc(-n6cc(-c7cc(F)cc(NS(=O)(=O)N8CC[C@@H](F)C8)c7F)c(-c7ccncc7)n6)nc5)CC4)CC3)nc2)C(=O)N1 [Compound 305, (3R)—N-{3-[1-(5-{4-[(1-{5-[(3R)-2,6-dioxopiperidin-3-yl]pyridin-2-yl}piperidin-4-yl)methyl]piperazin-1-yl}pyridin-2-yl)-3-(pyridin-4-yl)-1H-pyrazol-4-yl]-2,5-difluorophenyl}-3-fluoropyrrolidine-1-sulfonamide]	< 0.01 µM	> 70%	< 0.01 µM	> 70%	< 0.01 µM	> 70%	< 0.01 µM	> 70%
CCN(C)S(=O)(=O)Nc1cc(Cl)cc(-c2cn(-c3ccc(N4CCN(CC5CCN(c6ccc([C@H]7CCC(=O)NC7=O)cc6)CC5)CC4)cc3)nc2-c2ccncc2)c1F [Compound 306, (3R)-3-(4-{4-[(4-{4-[4-(5-chloro-3-{[ethyl(methyl)sulfamoyl]amino}-2-fluorophenyl)-3-(pyridin-4-yl)-1H-pyrazol-1-yl]phenyl}piperazin-1-yl)methyl]piperidin-1-yl}phenyl)piperidine-2,6-dione]	< 0.01 µM	> 70%	< 0.01 µM	30 to 70%	0.01 to 0.05 µM	30 to 70%	< 0.01 µM	> 70%
CCN(C)S(=O)(=O)Nc1cc(Cl)cc(-c2cn(-c3ccc(N4CCN(CC5CCN(c6ccc(N7CCC(=O)NC7=O)cc6)CC5)CC4)cc3)nc2-c2ccncc2)c1F [Compound 307, 1-(4-{4-[(4-{4-[4-(5-chloro-3-{[ethyl(methyl)sulfamoyl]amino}-2-fluorophenyl)-3-(pyridin-4-yl)-1H-pyrazol-1-yl]phenyl}piperazin-1-yl)methyl]piperidin-1-yl}phenyl)-1,3-diazinane-2,4-dione]	< 0.01 µM	> 70%	0.01 to 0.05 µM	30 to 70%	0.05 to 0.5 µM	30 to 70%	< 0.01 µM	> 70%
